Columns and labels:
late watergrass = assay: Test Example 1: herbicidal activity, application before weed generation under submerged conditions (Table 16, symbol A); format: in vivo, late watergrass (Echinochloa oryzicola); settings: 320 g/ha applied herbicide
Procedure, shortened: (§1)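 Submerged Wagner pots (alluvial soil, 4 cm water) sown with weed seeds and planted with 2.5-leaf rice seedlings; emulsifiable concentrate diluted in water applied to water surface on sowing day. Held in greenhouse at 25-30 °C; injury scored 0-5 by herbicidal rate after three weeks.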

Japanese bulrush = assay: Test Example 1: herbicidal activity, application before weed generation under submerged conditions (Table 16, symbol B); format: in vivo, Japanese bulrush (Schoenoplectus juncoides); settings: 320 g/ha applied herbicide
Procedure, shortened: as §1

oval-leafed pondweed = assay: Test Example 1: herbicidal activity, application before weed generation under submerged conditions (Table 16, symbol C); format: in vivo, oval-leafed pondweed (Monochoria vaginalis); settings: 320 g/ha applied herbicide
Procedure, shortened: as §1

barnyard grass [1] = assay: Test Example 3: herbicidal effect by foliage application, Wagner pot (Table 18, symbol H); format: in vivo, barnyard grass (Echinochloa crus-galli); settings: amount of applied herbicide 320 g/ha
Procedure, shortened: (§2)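 Plants were sown in alluvial soil held under 0.1–0.5 cm standing water and grown 14 days in a greenhouse at 25–30 °C. An emulsifiable formulation, water-diluted to the set dose, was then sprayed onto the foliage, and effects were scored three weeks later using previously defined criteria.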

Chinese sprangletop = assay: Test Example 3: herbicidal effect by foliage application, Wagner pot (Table 18, symbol D); format: in vivo, chinese sprangletop (Leptochloa chinensis); settings: amount of applied herbicide 320 g/ha
Procedure, shortened: as §2

rice flat sedge = assay: Test Example 3: herbicidal effect by foliage application, Wagner pot (Table 18, symbol E); format: in vivo, rice flat sedge (Cyperus iria); settings: amount of applied herbicide 320 g/ha
Procedure, shortened: as §2

southern crabgrass [2] = assay: Test Example 4: herbicidal effect by soil treatment (Table 19, symbol F); format: in vivo, southern crabgrass (Digitaria ciliaris); settings: amount of applied herbicide 320 g/ha
Procedure, shortened: (§3)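 Pre-emergence style soil spray: seeds under ~1.5 cm sterilized diluvial soil received a uniform coat of emulsion diluted to the predetermined herbicide amount. Greenhouse 25–30° C; readout at week three on previously defined criteria.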

green foxtail [3] = assay: Test Example 4: herbicidal effect by soil treatment (Table 19, symbol G); format: in vivo, green foxtail (Setaria viridis); settings: amount of applied herbicide 320 g/ha
Procedure, shortened: as §3

barnyard grass [4] = assay: Test Example 4: herbicidal effect by soil treatment (Table 19, symbol H); format: in vivo, barnyard grass (Echinochloa crus-galli); settings: amount of applied herbicide 320 g/ha
Procedure, shortened: as §3

wild oat [5] = assay: Test Example 4: herbicidal effect by soil treatment (Table 19, symbol I); format: in vivo, wild oat (Avena fatua); settings: amount of applied herbicide 320 g/ha
Procedure, shortened: as §3

blackgrass [6] = assay: Test Example 4: herbicidal effect by soil treatment (Table 19, symbol J); format: in vivo, blackgrass (Alopecurus myosuroides); settings: amount of applied herbicide 320 g/ha
Procedure, shortened: as §3

Italian ryegrass [7] = assay: Test Example 4: herbicidal effect by soil treatment (Table 19, symbol K); format: in vivo, Italian ryegrass (Lolium multiflorum); settings: amount of applied herbicide 320 g/ha
Procedure, shortened: as §3

windgrass = assay: Test Example 4: herbicidal effect by soil treatment (Table 19, symbol L); format: in vivo, windgrass (Apera spica-venti); settings: amount of applied herbicide 320 g/ha
Procedure, shortened: as §3

velvetleaf [8] = assay: Test Example 4: herbicidal effect by soil treatment (Table 19, symbol M); format: in vivo, velvetleaf (Abutilon theophrasti); settings: amount of applied herbicide 320 g/ha
Procedure, shortened: as §3

redroot pigweed [9] = assay: Test Example 4: herbicidal effect by soil treatment (Table 19, symbol N); format: in vivo, redroot pigweed (Amaranthus retroflexus); settings: amount of applied herbicide 320 g/ha
Procedure, shortened: as §3

lambsquarters [10] = assay: Test Example 4: herbicidal effect by soil treatment (Table 19, symbol O); format: in vivo, lambsquarters (Chenopodium album); settings: amount of applied herbicide 320 g/ha
Procedure, shortened: as §3

chickweed [11] = assay: Test Example 4: herbicidal effect by soil treatment (Table 19, symbol P); format: in vivo, common chickweed (Stellaria media); settings: amount of applied herbicide 320 g/ha
Procedure, shortened: as §3

persian speedwell [12] = assay: Test Example 4: herbicidal effect by soil treatment (Table 19, symbol R); format: in vivo, Persian speedwell (Veronica persica); settings: amount of applied herbicide 320 g/ha
Procedure, shortened: as §3

southern crabgrass [13] = assay: Test Example 5: herbicidal effect by foliage application, plastic box (Table 20, symbol F); format: in vivo, southern crabgrass (Digitaria ciliaris); settings: foliage application, AAH 320 g/ha, evaluated three weeks after application
Procedure, shortened: (§4)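 Plants were sown into sterilized diluvial soil under about 1.5 cm cover and kept in a greenhouse at 25° C. to 30° C. Fourteen days on, foliage received an even spray of the diluted emulsion. Herbicidal or crop effect was judged three weeks afterwards.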

green foxtail [14] = assay: Test Example 5: herbicidal effect by foliage application, plastic box (Table 20, symbol G); format: in vivo, green foxtail (Setaria viridis); settings: foliage application, AAH 320 g/ha, evaluated three weeks after application
Procedure, shortened: as §4

barnyard grass [15] = assay: Test Example 5: herbicidal effect by foliage application, plastic box (Table 20, symbol H); format: in vivo, barnyard grass (Echinochloa crus-galli); settings: foliage application, AAH 320 g/ha, evaluated three weeks after application
Procedure, shortened: as §4

wild oat [16] = assay: Test Example 5: herbicidal effect by foliage application, plastic box (Table 20, symbol I); format: in vivo, wild oat (Avena fatua); settings: foliage application, AAH 320 g/ha, evaluated three weeks after application
Procedure, shortened: as §4

blackgrass [17] = assay: Test Example 5: herbicidal effect by foliage application, plastic box (Table 20, symbol J); format: in vivo, blackgrass (Alopecurus myosuroides); settings: foliage application, AAH 320 g/ha, evaluated three weeks after application
Procedure, shortened: as §4

Italian ryegrass [18] = assay: Test Example 5: herbicidal effect by foliage application, plastic box (Table 20, symbol K); format: in vivo, Italian ryegrass (Lolium multiflorum); settings: foliage application, AAH 320 g/ha, evaluated three weeks after application
Procedure, shortened: as §4

velvetleaf [19] = assay: Test Example 5: herbicidal effect by foliage application, plastic box (Table 20, symbol M); format: in vivo, velvetleaf (Abutilon theophrasti); settings: foliage application, AAH 320 g/ha, evaluated three weeks after application
Procedure, shortened: as §4

redroot pigweed [20] = assay: Test Example 5: herbicidal effect by foliage application, plastic box (Table 20, symbol N); format: in vivo, redroot pigweed (Amaranthus retroflexus); settings: foliage application, AAH 320 g/ha, evaluated three weeks after application
Procedure, shortened: as §4

lambsquarters [21] = assay: Test Example 5: herbicidal effect by foliage application, plastic box (Table 20, symbol O); format: in vivo, lambsquarters (Chenopodium album); settings: foliage application, AAH 320 g/ha, evaluated three weeks after application
Procedure, shortened: as §4

chickweed [22] = assay: Test Example 5: herbicidal effect by foliage application, plastic box (Table 20, symbol P); format: in vivo, common chickweed (Stellaria media); settings: foliage application, AAH 320 g/ha, evaluated three weeks after application
Procedure, shortened: as §4

persian speedwell [23] = assay: Test Example 5: herbicidal effect by foliage application, plastic box (Table 20, symbol R); format: in vivo, Persian speedwell (Veronica persica); settings: foliage application, AAH 320 g/ha, evaluated three weeks after application
Procedure, shortened: as §4

Cc1nn(C)c(=O)c(-c2c(-c3ccc(OC(F)F)cc3)sc3ccc(F)cc23)c1OS(=O)(=O)N(C)C [2-310] was tested, and the “Herbicidal effect on A: late watergrass (grade 0-5)” value (late watergrass) was 0 (Herbicidal rate of 5% or less (almost no effect)), the “Herbicidal effect on B: Japanese bulrush (grade 0-5)” value (Japanese bulrush) was 2 (Herbicidal rate of 20% or more and less than 40%) and the “Herbicidal effect on C: oval-leafed pondweed (grade 0-5)” value (oval-leafed pondweed) was 0 (Herbicidal rate of 5% or less (almost no effect)). The “herbicidal effect on H: barnyard grass” value (barnyard grass [1]) was 5 (Herbicidal rate of 90% or more (almost completely withered)), the “herbicidal effect on D: Chinese sprangletop” value (Chinese sprangletop) was 4 (Herbicidal rate of 70% or more and less than 90%) and the “herbicidal effect on E: rice flat sedge” value (rice flat sedge) was 3 (Herbicidal rate of 40% or more and less than 70%). For the same compound, the “herbicidal effect on F: southern crabgrass” value (southern crabgrass [2]) was 0 (Herbicidal rate of 5% or less (almost no effect)), the “herbicidal effect on G: green foxtail” value (green foxtail [3]) was 0 (Herbicidal rate of 5% or less (almost no effect)) and the “herbicidal effect on H: barnyard grass” value (barnyard grass [4]) was 0 (Herbicidal rate of 5% or less (almost no effect)). The “herbicidal effect on I: wild oat” value (wild oat [5]) was 0 (Herbicidal rate of 5% or less (almost no effect)), the “herbicidal effect on J: blackgrass” value (blackgrass [6]) was 0 (Herbicidal rate of 5% or less (almost no effect)) and the “herbicidal effect on K: Italian ryegrass” value (Italian ryegrass [7]) was 0 (Herbicidal rate of 5% or less (almost no effect)). The “herbicidal effect on L: windgrass” value (windgrass) was 0 (Herbicidal rate of 5% or less (almost no effect)), the “herbicidal effect on M: velvetleaf” value (velvetleaf [8]) was 0 (Herbicidal rate of 5% or less (almost no effect)) and the “herbicidal effect on N: redroot pigweed” value (redroot pigweed [9]) was 0 (Herbicidal rate of 5% or less (almost no effect)). For the same compound, the “herbicidal effect on O: lambsquarters” value (lambsquarters [10]) was 0 (Herbicidal rate of 5% or less (almost no effect)), the “herbicidal effect on P: chickweed” value (chickweed [11]) was 3 (Herbicidal rate of 40% or more and less than 70%) and the “herbicidal effect on R: persian speedwell” value (persian speedwell [12]) was 4 (Herbicidal rate of 70% or more and less than 90%). The “F: southern crabgrass, herbicidal effect (criteria 0-5)” value (southern crabgrass [13]) was 0 (Herbicidal rate of 5% or less (almost no effect)), the “G: green foxtail, herbicidal effect (criteria 0-5)” value (green foxtail [14]) was 5 (Herbicidal rate of 90% or more (almost completely withered)) and the “H: barnyard grass, herbicidal effect (criteria 0-5)” value (barnyard grass [15]) was 5 (Herbicidal rate of 90% or more (almost completely withered)). For the same compound, the “I: wild oat, herbicidal effect (criteria 0-5)” value (wild oat [16]) was 0 (Herbicidal rate of 5% or less (almost no effect)), the “J: blackgrass, herbicidal effect (criteria 0-5)” value (blackgrass [17]) was 0 (Herbicidal rate of 5% or less (almost no effect)) and the “K: Italian ryegrass, herbicidal effect (criteria 0-5)” value (Italian ryegrass [18]) was 0 (Herbicidal rate of 5% or less (almost no effect)). The “M: velvetleaf, herbicidal effect (criteria 0-5)” value (velvetleaf [19]) was 5 (Herbicidal rate of 90% or more (almost completely withered)), the “N: redroot pigweed, herbicidal effect (criteria 0-5)” value (redroot pigweed [20]) was 5 (Herbicidal rate of 90% or more (almost completely withered)) and the “O: lambsquarters, herbicidal effect (criteria 0-5)” value (lambsquarters [21]) was 5 (Herbicidal rate of 90% or more (almost completely withered)). The “P: chickweed, herbicidal effect (criteria 0-5)” value (chickweed [22]) was 5 (Herbicidal rate of 90% or more (almost completely withered)) and the “R: persian speedwell, herbicidal effect (criteria 0-5)” value (persian speedwell [23]) was 5 (Herbicidal rate of 90% or more (almost completely withered)).
